The values that follow come from paper PMC8049054, “Systematic Assessment of Fragment Identification for Multitarget Drug Design” (Chemmedchem, 2021).

For this test, the target named is T1, leukotriene A4 hydrolase (LTA4H) (Homo sapiens, UniProt P09960).
T1 construct: made in house; host or cells: E. coli BL21 (DE3)
T1 sequence (P09960 1-611): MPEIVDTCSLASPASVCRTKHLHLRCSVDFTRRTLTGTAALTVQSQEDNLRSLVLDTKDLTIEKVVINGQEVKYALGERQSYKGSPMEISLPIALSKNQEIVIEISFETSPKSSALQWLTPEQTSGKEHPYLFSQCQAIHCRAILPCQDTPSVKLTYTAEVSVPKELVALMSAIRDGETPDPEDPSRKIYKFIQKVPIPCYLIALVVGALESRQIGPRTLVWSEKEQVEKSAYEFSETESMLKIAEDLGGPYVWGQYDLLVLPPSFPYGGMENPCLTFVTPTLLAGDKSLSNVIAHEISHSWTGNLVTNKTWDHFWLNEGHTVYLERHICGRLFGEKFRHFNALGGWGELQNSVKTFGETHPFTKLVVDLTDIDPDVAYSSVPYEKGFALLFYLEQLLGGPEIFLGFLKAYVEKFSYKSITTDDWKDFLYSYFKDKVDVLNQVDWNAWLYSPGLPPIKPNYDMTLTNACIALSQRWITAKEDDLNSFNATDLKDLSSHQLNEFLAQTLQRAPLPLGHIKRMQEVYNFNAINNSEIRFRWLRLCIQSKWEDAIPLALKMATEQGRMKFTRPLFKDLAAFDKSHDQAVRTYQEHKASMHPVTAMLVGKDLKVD
Briefly: Differential scanning fluorimetry (DSF) screen on LTA4H. Type of test: binding. Particulars: 500 μM fragment, mean of duplicates. The text has this: For the primary screen of this fragment library, we employed differential scanning fluorimetry (DSF, also known as thermal shift). DSF is generally applicable to a large panel of protein targets and provides a robust, low‐cost screening technology for fragment‐based approaches. ^[20] All five proteins of our interest are soluble and were recombinantly expressed in Escherichia coli. We performed an initial fragment screen on all five targets by DSF. The use of a uniform screening method for all targets ensured consistent data and provided the opportunity to identify false positive hits which interfered with the screening technology. The conditions of the DSF assay were optimized for the desired screening and validated with reference compounds (Table S1 in the Supporting Information). Compounds causing a positive thermal shift ΔT m≥1.0 °C were considered as active.
DSF measurement of the PDFL (single concentration of 500 μM, duplicates, 96‐well format) on the five proteins retrieved 19 fragment hits on sEH, 28 on LTA4H, 12 on 5‐LOX, 16 on RXRα, and 14 on FXR, respectively. Melting point distributions of the screening library for all five targets are depicted in Figure 2. Amongst the hits, three compounds (Table S2) gave a positive signal on all five proteins likely qualifying them as pan assay interference compounds (PAINS). ^[21] Fragments binding to multiple targets (Scheme 1) were identified for seven out of ten target combinations (Figure 2, Table 1). Among them, fragments 4, 6, 7, and 9 match previously identified privileged scaffolds for fatty acid mimetics. ^[14] […] Active ligands containing N‐phenylbenzamide 6 and the N‐phenylbenzylamine 7 have been described for four of the protein targets. Furthermore, indole, which has been characterized as a privileged heterocycle for fatty acid mimetics, ^[14] is present in fragments 5 and 10. Dual 5‐LOX/RXR ligand 1 was present in 5‐LOX inhibitors, while dual FXR/LTA4H modulator 3 is found among known FXR ligands. Fragments 2 (sEH/5‐LOX) and 8 (LTA4H/RXR) are novel scaffolds not appearing in known ligands of any of the five targets.
Figure S3: SDS page of the purified proteins (proteins RXRα and FXR after TEV cleavage) using a 14% polyacrylamide gel, which was stained with coomassi. Precision Plus Protein™ Unstained Protein Standard s (Bio-Rad Laboratories, Inc. ) was used […]
All experiments were performed as duplicates using MicroAmp fast 96 -well plates. Each plate contained 80 different compound wells and 16 DMSO control wells. First 0.8 µl of a 25 mM Preswick Library Fragment dilution in DMSO or pure DMSO were placed in each of the well (final concentration 500 µM). Then 39.2 µl of the master mi x (containing protein, Triton x -100, SYPRO® Orange Protein Gel Stain and buffer that corresponds to the tested protein) were added.
Table S4: Final concentrations in DSF experiments: […]
The measurements were performed using a iCycler iQ™ Single -Color Real Time PCR device with a heat rate of 1 °C per min, an excitation wavelength of 490 nm and an emission wavelength of 570 nm. The first derivation calculated by MyiQ Op tical Software 1.0 was analyzed using Microsoft Office Excel 2013 by comparing the maxima. A shift of 1 °C (in case of 5 -LOX 0.9°C) or more compared to the DMSO control were assumed as potentially binding of the fragment.
(1 picture or pasted object on this page, not shown here)
On the technique in general: DSF heats the sample and reads unfolding from a dye or from intrinsic fluorescence.
On to `c1ccc(N2CCNCC2)nc1` [Compound 1], for which the “DSF/ΔT m LTA4H” value was −0.5±0.0 °C.
As for `Cc1cc(=O)n(-c2ccc(C)c(C)c2)[nH]1` [Compound 2], the “DSF/ΔT m LTA4H” value was −0.1±2.1 °C.
With `CCCCOc1cc(C(=O)OC)ccc1N` [Compound 3], the “DSF/ΔT m LTA4H” value came out at 2.5±0.0 °C.
Take `Oc1ccc(Cc2ccccc2)cc1` [Compound 4]: the “DSF/ΔT m LTA4H” value came to 1.5±0.0 °C.
Under `Oc1ccc2cc[nH]c2c1` [Compound 5] stands 1.7±0.0 °C; under `Cc1ccccc1C(=O)Nc1ccccc1` [Compound 6], 1.4±1.4 °C; under `CCN(Cc1ccccc1)c1ccccc1` [Compound 7], 0.5±0.0 °C.
`Clc1ccc2c(c1)Nc1ccccc1CC2` [Compound 8]: the “DSF/ΔT m LTA4H” value stood at 1.5±0.0 °C.
Regarding `Oc1ccc(-c2ccc(F)cc2F)cc1` [Compound 9], the “DSF/ΔT m LTA4H” value is 0.7±0.0 °C.
The value for `Fc1ccc(-c2c[nH]c3ccccc23)cc1` [Compound 10] was 2.4±0.0 °C.
